Assays:
TGFBR2 = target: T1, TGFBR2 (Homo sapiens, UniProt P37173); assay: TGFBR2 RBC assay (enzyme inhibition assay, Reaction Biology Corp.); type: biochemical
T1 construct: purchased Reaction Biology Corp
Description: Compounds of the disclosure were also assayed by Reaction Biology Corp. using the TGFBR2 RBC assay (enzyme inhibition assay). […] NT refers to not tested.

[1] = test system: TGFβ/SMAD Signaling Pathway SBE reporter cell line; assay: TGFβ reporter assay, in vitro small molecule screening (luciferase); type: cell-based; settings: TGFβ stimulation, luminescence
Outline: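 SBE luciferase reporter cells (~0.5×10^6 cells/mL) preincubated with compound 5-6 h at 37 °C in 0.5% FBS MEM, then stimulated with TGFβ (12 ng/mL stock) for 18 h. Luminescence read after luciferase substrate; EC50 from curve fits.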

T1 sequence (P37173 23-567): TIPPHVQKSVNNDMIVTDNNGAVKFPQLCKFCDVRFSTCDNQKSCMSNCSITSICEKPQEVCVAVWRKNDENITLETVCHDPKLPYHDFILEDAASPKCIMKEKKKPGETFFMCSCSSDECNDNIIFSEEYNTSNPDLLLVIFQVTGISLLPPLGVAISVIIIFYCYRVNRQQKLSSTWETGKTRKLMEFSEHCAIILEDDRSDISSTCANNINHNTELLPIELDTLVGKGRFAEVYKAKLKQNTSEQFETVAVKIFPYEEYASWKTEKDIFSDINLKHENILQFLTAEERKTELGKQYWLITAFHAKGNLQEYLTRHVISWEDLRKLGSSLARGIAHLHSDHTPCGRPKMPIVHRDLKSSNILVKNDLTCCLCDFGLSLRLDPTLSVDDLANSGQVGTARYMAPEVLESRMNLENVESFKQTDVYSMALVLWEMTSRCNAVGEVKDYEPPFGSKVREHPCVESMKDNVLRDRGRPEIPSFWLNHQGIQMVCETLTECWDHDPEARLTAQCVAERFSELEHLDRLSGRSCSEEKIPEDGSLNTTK

Row | SMILES | IC50 (TGFBR2) [nM] | EC50 [1] [nM]
1 | Nc1ncc(-c2ccc(CCNC(=O)OCc3ccccc3)cc2)nc1C(=O)Nc1cncc(-c2ccccc2[N+](=O)[O-])c1 [Compound 144] | < 50 | > 1000
2 | NCCc1ccc(-c2cnc(N)c(C(=O)Nc3cncc(-c4ccccc4N)c3)n2)cc1 [Compound 148] | 100 to 1000 | > 1000
3 | NCCc1ccc(-c2cnc(N)c(C(=O)Nc3cncc(-c4cccc(N)c4)c3)n2)cc1 [Compound 149] | 50 to 100 | > 1000
4 | COc1ccc(-c2cnc(N)c(C(=O)Nc3cnccc3N3CCOCC3)n2)c(OC)c1 [Compound 157] | 100 to 1000 | 100 to 1000
5 | COc1ccc(-c2cnc(N)c(C(=O)Nc3cnccc3N3CCOCC3)n2)cc1OC [Compound 158] | < 50 | 100 to 1000
6 | COc1ccc(OC)c(-c2cnc(N)c(C(=O)Nc3cnccc3N3CCOCC3)n2)c1 [Compound 159] | 100 to 1000 | 100 to 1000
7 | Nc1ncc(-c2ccc(O[C@@H]3CCN(C(=O)OCc4ccccc4)C3)cc2)nc1C(=O)Nc1cnccc1N1CCOCC1 [Compound 162] | < 50 | 100 to 1000
8 | Nc1ncc(-c2ccc(O[C@@H]3CCCN(C(=O)OCc4ccccc4)C3)cc2)nc1C(=O)Nc1cnccc1N1CCOCC1 [Compound 163] | 100 to 1000 | 100 to 1000
9 | Nc1ncc(-c2ccc(O[C@H]3CCN(C(=O)OCc4ccccc4)C3)cc2)nc1C(=O)Nc1cnccc1N1CCOCC1 [Compound 164] | 50 to 100 | 100 to 1000
10 | Nc1ncc(-c2ccc(O[C@H]3CCCN(C(=O)OCc4ccccc4)C3)cc2)nc1C(=O)Nc1cnccc1N1CCOCC1 [Compound 165] | 100 to 1000 | 100 to 1000
11 | Nc1ncc(-c2ccc(OC3CCN(C(=O)OCc4ccccc4)CC3)cc2)nc1C(=O)Nc1cnccc1N1CCOCC1 [Compound 166] | 100 to 1000 | 100 to 1000
12 | Nc1ncc(-c2ccc(OC3CCNCC3)cc2)nc1C(=O)Nc1cnccc1N1CCOCC1 [Compound 167] | < 50 | 50 to 100
13 | Nc1ncc(-c2ccc(O[C@@H]3CCCNC3)cc2)nc1C(=O)Nc1cnccc1N1CCOCC1 [Compound 168] | < 50 | 50 to 100
14 | Nc1ncc(-c2ccc(O[C@H]3CCCNC3)cc2)nc1C(=O)Nc1cnccc1N1CCOCC1 [Compound 169] | < 50 | 50 to 100
15 | Nc1ncc(-c2ccc3c(c2)CCCO3)nc1C(=O)Nc1cnccc1N1CCOCC1 [Compound 174] | < 50 | 100 to 1000
16 | Nc1ncc(-c2cccc(CNC(=O)OCc3ccccc3)c2)nc1C(=O)Nc1cnccc1N1CCOCC1 [Compound 176] | < 50 | 100 to 1000

Row | SMILES | IC50 (TGFBR2) [nM] | EC50 [1] [nM]
17 | Nc1ncc(-c2cccc(CCNC(=O)OCc3ccccc3)c2)nc1C(=O)Nc1cnccc1N1CCOCC1 [Compound 177] | 50 to 100 | 100 to 1000
18 | Nc1ncc(-c2cccc(CCCNC(=O)OCc3ccccc3)c2)nc1C(=O)Nc1cnccc1N1CCOCC1 [Compound 178] | < 50 | 100 to 1000
19 | NCCCc1cccc(-c2cnc(N)c(C(=O)Nc3cnccc3N3CCOCC3)n2)c1 [Compound 182] | < 50 | 100 to 1000
20 | CC(C)(C)OC(=O)NCCOc1cccc(-c2cnc(N)c(C(=O)Nc3cnccc3N3CCOCC3)n2)c1 [Compound 183] | < 50 | 100 to 1000
21 | NCCOc1cccc(-c2cnc(N)c(C(=O)Nc3cnccc3N3CCOCC3)n2)c1 [Compound 184] | < 50 | 100 to 1000
22 | Nc1ncc(-c2ccc3c(c2)CCC3)nc1C(=O)Nc1cnccc1N1CCOCC1 [Compound 185] | < 50 | 100 to 1000
23 | Nc1ncc(Cc2ccccc2)nc1C(=O)Nc1cnccc1N1CCOCC1 [Compound 186] | > 1000 | > 1000
24 | NCCc1ccc(-c2cnc(N)c(C(=O)Nc3cnccc3-n3cncn3)n2)cc1 [Compound 187] | < 50 | 100 to 1000
25 | Nc1ncc(-c2ccc(CCNC(=O)OCc3ccccc3)cc2)nc1C(=O)Nc1cnccc1-n1cncn1 [Compound 188] | < 50 | > 1000
26 | CC(COc1cccc(-c2cnc(N)c(C(=O)Nc3cnccc3N3CCOCC3)n2)c1)NC(=O)OC(C)(C)C (stereo not shown) [Compound 189] | < 50 | > 1000
27 | CC(CN)Oc1cccc(-c2cnc(N)c(C(=O)Nc3cnccc3N3CCOCC3)n2)c1 (stereo not shown) [Compound 190] | 50 to 100 | 100 to 1000
28 | CC(CNC(=O)OC(C)(C)C)Oc1cccc(-c2cnc(N)c(C(=O)Nc3cnccc3N3CCOCC3)n2)c1 (stereo not shown) [Compound 191] | < 50 | > 1000
29 | COC(=O)[C@@H](Cc1ccc(-c2cnc(N)c(C(=O)Nc3cnccc3N3CCOCC3)n2)cc1)NC(=O)OC(C)(C)C [Compound 192] | < 50 | 100 to 1000
30 | Nc1ncc(-c2ccc3c(c2)CCCN3)nc1C(=O)Nc1cnccc1N1CCOCC1 [Compound 193] | < 50 | 50 to 100
31 | CC(N)COc1cccc(-c2cnc(N)c(C(=O)Nc3cnccc3N3CCOCC3)n2)c1 (stereo not shown) [Compound 194] | < 50 | 100 to 1000
32 | COC(=O)[C@H](N)Cc1ccc(-c2cnc(N)c(C(=O)Nc3cnccc3N3CCOCC3)n2)cc1 [Compound 195] | < 50 | 100 to 1000

Other lines, results leading:

Row | IC50 (TGFBR2) [nM] | EC50 [1] [nM] | SMILES
33 | 100 to 1000 | > 1000 | COc1ccccc1-c1cnc(N)c(C(=O)Nc2cnccc2N2CCOCC2)n1 [Compound 150]
34 | 50 to 100 | 100 to 1000 | Nc1ncc(-c2ccccc2Cl)nc1C(=O)Nc1cnccc1N1CCOCC1 [Compound 151]
35 | < 50 | 100 to 1000 | Nc1ncc(-c2cccc(Cl)c2)nc1C(=O)Nc1cnccc1N1CCOCC1 [Compound 152]
36 | 100 to 1000 | > 1000 | Nc1ncc(-c2ccc(Cl)cc2Cl)nc1C(=O)Nc1cnccc1N1CCOCC1 [Compound 153]
37 | 100 to 1000 | > 1000 | Nc1ncc(-c2ccc(Cl)c(Cl)c2)nc1C(=O)Nc1cnccc1N1CCOCC1 [Compound 154]
38 | < 50 | 100 to 1000 | COc1cccc(-c2cnc(N)c(C(=O)Nc3cnccc3N3CCOCC3)n2)c1 [Compound 155]
39 | < 50 | 100 to 1000 | COc1ccc(-c2cnc(N)c(C(=O)Nc3cnccc3N3CCOCC3)n2)cc1 [Compound 156]
40 | < 50 | 100 to 1000 | Nc1ncc(-c2ccc(Cl)cc2)nc1C(=O)Nc1cnccc1N1CCOCC1 [Compound 160]
41 | 100 to 1000 | 100 to 1000 | Nc1ncc(-c2cc(Cl)ccc2Cl)nc1C(=O)Nc1cnccc1N1CCOCC1 [Compound 161]
42 | > 1000 | > 1000 | COc1cccc(OC)c1-c1cnc(N)c(C(=O)Nc2cnccc2N2CCOCC2)n1 [Compound 172]
43 | > 1000 | 100 to 1000 | Nc1ncc(-c2c(Cl)cccc2Cl)nc1C(=O)Nc1cnccc1N1CCOCC1 [Compound 173]
44 | 100 to 1000 | 100 to 1000 | NCc1cccc(-c2cnc(N)c(C(=O)Nc3cnccc3N3CCOCC3)n2)c1 [Compound 175]
45 | 50 to 100 | > 1000 | Nc1ncc(-c2cccc3c2CCC3)nc1C(=O)Nc1cnccc1N1CCOCC1 [Compound 179]
46 | 50 to 100 | 100 to 1000 | Nc1ncc(-c2ccccc2)nc1C(=O)Nc1cnccc1N1CCOCC1 [Compound 180]
47 | < 50 | 100 to 1000 | NCCc1cccc(-c2cnc(N)c(C(=O)Nc3cnccc3N3CCOCC3)n2)c1 [Compound 181]
